Reference: the supplement of paper PMC10307832

What was measured:
Experiment in all cases: relative viability (nuclei count vs DMSO), 5 days (fraction); higher = more cells survive
[1] = compound: CCC1=CN=CN=C1N2CCN(CC2)CC3=NC4=C(N3)C=C(C=C4)C(F)(F)F + Cc1nc(NC(=O)N2CCC[C@H]2C(N)=O)sc1-c1ccnc(C(C)(C)C(F)(F)F)c1 [Alpelisib] (partner 2 µM)
Procedure, shortened: (§1)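 Relative viability was taken as the ratio of nuclei in treated wells to nuclei in vehicle wells. Lung cancer cell lines in 1536-well plates received compounds by pin tool one day after seeding, either one drug alone or a fixed anchor-drug dose plus five library-drug doses (not always all listed) in √10 steps. Nuclei were counted on 4× images after 5 days of treatment, and values are medians of duplicate plates.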

[2] = compound: CCC1=CN=CN=C1N2CCN(CC2)CC3=NC4=C(N3)C=C(C=C4)C(F)(F)F + O=C(c1cc(Cc2n[nH]c(=O)c3ccccc23)ccc1F)N1CCN(C(=O)C2CC2)CC1 [Olaparib] (partner 8 µM)
Procedure, shortened: as §1

[3] = compound: CCn1c(-c2nonc2N)nc2cnc(Oc3cccc(NC(=O)c4ccc(OCCN5CCOCC5)cc4)c3)cc21 + CC(=O)Nc1cccc(-n2c(=O)n(C3CC3)c(=O)c3c(Nc4ccc(I)cc4F)n(C)c(=O)c(C)c32)c1 [Trametinib] (partner 0.02 µM)
Procedure, shortened: as §1

[4] = compound: CCn1c(-c2nonc2N)nc2cnc(Oc3cccc(NC(=O)c4ccc(OCCN5CCOCC5)cc4)c3)cc21 + CS(=O)(=O)CCNCc1ccc(-c2ccc3ncnc(Nc4ccc(OCc5cccc(F)c5)c(Cl)c4)c3c2)o1 [Lapatinib] (partner 2 µM)
Procedure, shortened: as §1

Row | Cell Line | relative viability ([1]; first compound 0.04 µM) | relative viability ([1]; first compound 0.1265 µM) | relative viability ([1]; first compound 0.4 µM) | relative viability ([1]; first compound 4 µM) | relative viability ([2]; first compound 0.04 µM) | relative viability ([2]; first compound 0.1265 µM) | relative viability ([2]; first compound 0.4 µM) | relative viability ([2]; first compound 4 µM) | relative viability ([3]; first compound 0.04 µM) | relative viability ([3]; first compound 0.1265 µM) | relative viability ([3]; first compound 0.4 µM) | relative viability ([3]; first compound 1.265 µM) | relative viability ([3]; first compound 4 µM) | relative viability ([4]; first compound 0.04 µM) | relative viability ([4]; first compound 0.1265 µM) | relative viability ([4]; first compound 0.4 µM) | relative viability ([4]; first compound 1.265 µM) | relative viability ([4]; first compound 4 µM) | relative viability ([1]; first compound 1.265 µM) | relative viability ([2]; first compound 1.265 µM)
1 | NCI-H2405 | 0.858 | 0.768 | 0.651 | 0.941 | 0.898 | 0.874 | 0.821 | 0.919 | 0.537 | 0.385 | 0.311 | 0.253 | 0.26 | 1.19 | 0.661 | 0.194 | 0.336 | 0.316 |  | 
2 | NCI-H3122 | 0.954 | 0.77 | 0.856 | 0.872 | 0.663 | 0.55 | 0.551 | 0.56 | 0.175 | 0.189 | 0.254 | 0.226 | 0.247 | 1.1 | 1.04 | 0.891 | 0.804 | 0.691 | 1.01 | 0.54
3 | PC-3 [JPC-3] | 1.06 | 0.94 | 1.02 | 0.96 |  | 1.02 | 1.13 | 0.977 | 0.693 | 0.589 | 0.591 | 0.598 | 0.537 | 0.527 | 0.499 | 0.438 | 0.573 | 0.522 | 1.04 | 1.02
4 | PC-14 | 1.07 | 0.869 | 0.959 | 0.982 | 0.231 | 0.275 | 0.29 | 0.261 | 0.632 | 0.379 | 0.468 | 0.426 | 0.396 | 0.343 | 0.227 | 0.232 | 0.264 | 0.283 | 0.766 | 0.25
5 | RERF-LC-KJ | 0.866 | 0.676 | 0.834 | 0.743 | 0.975 | 0.95 | 0.954 | 0.885 | 0.862 | 0.898 | 0.826 | 0.562 | 0.589 | 0.933 | 0.827 | 0.717 | 0.684 | 0.606 | 0.582 | 0.849
6 | SK-LU-1 | 1.03 | 0.995 | 1.04 | 1 | 0.452 | 0.438 | 0.47 | 0.442 | 0.481 | 0.386 | 0.378 | 0.254 | 0.311 | 1.24 | 0.662 | 0.611 | 0.493 | 0.449 | 0.771 | 0.443
7 | SK-MES-1 | 0.986 | 1.05 | 0.852 | 0.86 | 0.657 | 0.643 | 0.684 | 0.673 | 0.534 | 0.519 | 0.402 | 0.391 | 0.328 | 0.493 | 0.434 | 0.404 | 0.453 | 0.401 | 0.868 | 0.592
8 | SW 1573 | 0.591 | 0.646 | 0.745 | 0.687 | 0.447 | 0.462 | 0.45 | 0.379 | 0.716 | 0.577 | 0.478 | 0.229 | 0.19 | 1.21 | 0.904 | 0.685 | 0.627 | 0.353 | 0.579 | 0.443
